Results taken from US9855245B2, “Methods for improving lipid profiles using atrasentan” (AbbVie Inc., priority 2013, dated 2018).

Key:
[1] = system: subjects with type 2 diabetes and nephropathy; assay: Example 3: Phase 2b randomized, double-blind, placebo-controlled 8-week study with thoracic bioimpedance; assay type: in vivo, human; conditions: for Death / Fatal adverse event: N = 16; for UACR Change from Baseline LS Mean (SE) / UACR Geometric Mean Change (Percent): baseline to final on-treatment measurement
Source text: This study also included measurement of thoracic bioimpedance to assess the potential for thoracic fluid retention with atrasentan.
An equal percentage of subjects in all 3 groups experienced an adverse event (81.3%). […] (Table 17).
A mean decrease of 4 ohms in thoracic bioimpedance, as measured by the ZOE® Fluid Status Monitor, is considered clinically indicative of thoracic fluid overload. Mean thoracic bioimpedance fluctuated in all treatment groups over time, with greater mean changes in the 2 atrasentan groups than in the placebo group.

[2] = target: T1, ETAR (Homo sapiens, UniProt P25101); assay: Example 6: receptor occupancy data overlaid on edema risk
T1 construct: Instead it rises proportionally across the ETAR receptor occupancy curve
T1 sequence (P25101 21-427): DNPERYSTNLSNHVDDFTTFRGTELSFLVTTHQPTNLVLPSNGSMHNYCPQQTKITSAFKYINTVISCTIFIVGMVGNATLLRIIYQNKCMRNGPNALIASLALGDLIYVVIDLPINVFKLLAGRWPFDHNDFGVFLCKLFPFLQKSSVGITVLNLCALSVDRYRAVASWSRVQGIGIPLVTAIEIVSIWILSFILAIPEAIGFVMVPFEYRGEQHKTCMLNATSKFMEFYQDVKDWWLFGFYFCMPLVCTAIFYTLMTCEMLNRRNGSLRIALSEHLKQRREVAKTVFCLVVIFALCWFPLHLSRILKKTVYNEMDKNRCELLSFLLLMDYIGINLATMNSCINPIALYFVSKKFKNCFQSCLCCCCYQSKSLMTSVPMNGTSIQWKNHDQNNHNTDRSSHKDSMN

[3] = system: subjects with type 2 diabetes and nephropathy; assay: Example 2: Phase 2b randomized, double-blind, placebo-controlled 12-week study conducted in Japan
Protocol: The primary efficacy endpoint in this study was the change from Baseline to Week 12 in log-transformed UACR with the primary analysis conducted using MMRM with fixed effects for treatment, visit, and treatment-by-visit interaction, with baseline measurement and baseline-by-visit interaction as covariates.
All safety analyses were performed on treatment-emergent adverse events only. Treatment-emergent adverse events were defined as those that first occurred or worsened on or after the date of first dose of study drug through 30 days after the last dose of study drug.

## CCCCN(CCCC)C(=O)CN1C[C@H](c2ccc3c(c2)OCO3)[C@@H](C(=O)O)[C@@H]1c1ccc(OC)cc1 [Atrasentan, (2R,3R,4S)-4-(1,3-benzodioxol-5-yl)-1-[2-(dibutylamino)-2-oxoethyl]-2-(4-methoxyphenyl)pyrrolidine-3-carboxylic acid]
[1]; 0.5 mg
  Death: 0 N (%) of Subjects
  Fatal adverse event: 0 N (%) of Subjects
[1]; 0.5 mg/day
  Cholesterol, Difference (95% CI) from placebo: 3.6 (−19.26, 26.46) mg/dL
  Cholesterol, Final On-Treatment Visit Mean (SD): 155.1 (40.36) mg/dL
  Cholesterol, LS Mean Change from Baseline (SE): −1.5 (7.05) mg/dL
  HDL-C, Difference (95% CI) from placebo: 1.9 (−3.54, 7.28) mg/dL
  HDL-C, Final On-Treatment Visit Mean (SD): 41.1 (9.92) mg/dL
  HDL-C, LS Mean Change from Baseline (SE): −0.5 (1.67) mg/dL
  Had ≧30% Reduction in UACR and No Edema (no moderate or severe adverse event of edema): 31.3%
  LDL-C, Difference (95% CI) from placebo: 3.1 (−19.49, 25.75) mg/dL
  LDL-C, Final On-Treatment Visit Mean (SD): 68.1 (23.33) mg/dL
  LDL-C, LS Mean Change from Baseline (SE): −0.3 (6.67) mg/dL
  Percentage of Subjects with ≧30% Reduction in Log-Transformed UACR from Baseline to Final Measurement: 50.0%
  Percentage of Subjects with ≧40% Reduction in Log-Transformed UACR from Baseline to Final Measurement: 31.3%
  Percentage of Subjects with ≧50% Reduction in Log-Transformed UACR from Baseline to Final Measurement: 18.8%
  Triglycerides, Difference (95% CI) from placebo: −29.8 (−14.09, 44.49) mg/dL
  Triglycerides, Final On-Treatment Visit Mean (SD): 206.1 (71.42) mg/dL
  Triglycerides, LS Mean Change from Baseline (SE): −2.3 (22.89) mg/dL
  geometric mean reduction in UACR, baseline to final on-treatment measurement: 27.7%
  UACR Change from Baseline LS Mean (SE): −0.32 log mg/g creatinine
  UACR Geometric Mean Change (Percent): −27.69%
[1]; 0.5 mg/day vs placebo
  UACR Between-group Comparison Difference (90% CI): 0.04 (−0.28, 0.36)
[1]; 1.25 mg
  Death: 0 N (%) of Subjects
  Fatal adverse event: 0 N (%) of Subjects
[1]; 1.25 mg/day
  Cholesterol, Difference (95% CI) from placebo: −14.7 (−37.99, 8.54) mg/dL
  Cholesterol, Final On-Treatment Visit Mean (SD): 169.4 (46.02) mg/dL
  Cholesterol, LS Mean Change from Baseline (SE): −19.9 (7.30) mg/dL
  HDL-C, Difference (95% CI) from placebo: −1.4 (−6.89, 4.13) mg/dL
  HDL-C, Final On-Treatment Visit Mean (SD): 53.9 (22.23) mg/dL
  HDL-C, LS Mean Change from Baseline (SE): −3.7 (1.73) mg/dL
  Had ≧30% Reduction in UACR and No Edema (no moderate or severe adverse event of edema): 28.6%
  LDL-C, Difference (95% CI) from placebo: −9.8 (−33.30, 13.64) mg/dL
  LDL-C, Final On-Treatment Visit Mean (SD): 78.9 (37.01) mg/dL
  LDL-C, LS Mean Change from Baseline (SE): −13.3 (7.21) mg/dL
  Percentage of Subjects with ≧30% Reduction in Log-Transformed UACR from Baseline to Final Measurement: 42.9%
  Percentage of Subjects with ≧40% Reduction in Log-Transformed UACR from Baseline to Final Measurement: 42.9%
  Percentage of Subjects with ≧50% Reduction in Log-Transformed UACR from Baseline to Final Measurement: 35.7%
  Triglycerides, Difference (95% CI) from placebo: −31.0 (−108.09, 46.10) mg/dL
  Triglycerides, Final On-Treatment Visit Mean (SD): 187.1 (115.90) mg/dL
  Triglycerides, LS Mean Change from Baseline (SE): −3.5 (24.59) mg/dL
  geometric mean reduction in UACR, baseline to final on-treatment measurement: 37.4%
  total cholesterol, LDL-C, and triglycerides compared with placebo: greater mean decreases
  UACR Change from Baseline LS Mean (SE): −0.47 log mg/g creatinine
  UACR Geometric Mean Change (Percent): −37.45%
[1]; 1.25 mg/day vs placebo
  UACR Between-group Comparison Difference (90% CI): −0.11 (−0.43, 0.21)
[2]; Dose 0.25 mg
  Receptor Occupancy: 25%
[2]; Dose 0.75 mg
  Receptor Occupancy: 47%
[2]; Dose 1.75 mg
  Receptor Occupancy: 67%
[3]; 0.75 mg, N = 19
  Any adverse event: 17 (89.5) N (%) of Subjects
  Any adverse event leading to discontinuation of study drug: 1 (5.3) N (%) of Subjects
  Death: 0 N (%) of Subjects
  Fatal adverse event: 0 N (%) of Subjects
  Possibly or probably drug-related adverse event: 7 (36.8) N (%) of Subjects
  Serious adverse event: 3 (15.8) N (%) of Subjects
  Severe adverse event: 1 (5.3) N (%) of Subjects
[3]; 0.75 mg/day
  Cholesterol, Difference (95% CI) from placebo: −26.1 (−42.77, −9.33) mg/dL
  Cholesterol, Final On-Treatment Visit Mean (SD): 173.5 (30.52) mg/dL
  Cholesterol, LS Mean Change from Baseline (SE): −28.0 (5.27) mg/dL
  HDL-C, Difference (95% CI) from placebo: −1.0 (−6.89, 4.91) mg/dL
  HDL-C, Final On-Treatment Visit Mean (SD): 48.8 (12.65) mg/dL
  HDL-C, LS Mean Change from Baseline (SE): −2.8 (1.86) mg/dL
  Had ≧30% Reduction in UACR and No Edema (no moderate or severe adverse event of edema): 8 (42.1) Number (%) of Subjects
  Hemoglobin, Difference (95% CI) from placebo: −1.22 (−1.863, −0.586) g/dL
  Hemoglobin, Final On-Treatment Visit Mean (SD): 11.74 (1.963) g/dL
  LDL-C, Difference (95% CI) from placebo: −19.4 (−33.56, −5.30) mg/dL
  LDL-C, Final On-Treatment Visit Mean (SD): 94.4 (29.10) mg/dL
  LDL-C, LS Mean Change from Baseline (SE): −18.6 (4.45) mg/dL
  Percentage of Subjects with ≧30% Reduction in Log-Transformed UACR from Baseline to Final Measurement: 52.6%
